{"source": "paper PMC7827406", "about": "“Structure–Activity Relationship (SAR) Study of Spautin-1 to Entail the Discovery of Novel NEK4 Inhibitors” (International Journal of Molecular Sciences, 2021)", "experiment_in_all_cases": "biochemical", "set-up_in_all_cases": "Eurofins KinaseProfiler full panel at Km ATP, residual kinase activity (%) relative to DMSO", "key": {"SRMS(h)": {"molecular_target": "SRMS(h) (Homo sapiens, UniProt Q9H3Y6)", "sequence (Q9H3Y6 whole entry)": "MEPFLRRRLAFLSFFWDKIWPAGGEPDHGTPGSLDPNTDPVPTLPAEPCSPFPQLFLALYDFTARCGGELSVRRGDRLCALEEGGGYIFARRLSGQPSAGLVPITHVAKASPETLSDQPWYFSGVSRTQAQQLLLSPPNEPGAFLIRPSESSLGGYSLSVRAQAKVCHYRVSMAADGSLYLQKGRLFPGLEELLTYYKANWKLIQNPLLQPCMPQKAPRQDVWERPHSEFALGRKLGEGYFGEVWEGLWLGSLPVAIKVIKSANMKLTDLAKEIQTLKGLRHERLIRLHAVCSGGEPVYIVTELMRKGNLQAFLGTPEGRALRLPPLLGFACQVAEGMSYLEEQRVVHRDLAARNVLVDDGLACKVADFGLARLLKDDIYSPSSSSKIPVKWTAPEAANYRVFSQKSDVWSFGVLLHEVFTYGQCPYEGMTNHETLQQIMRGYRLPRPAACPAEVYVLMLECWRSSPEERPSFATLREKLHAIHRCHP", "in_short": "(§1)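 Radiometric kinase activity assays were run with ATP at Km and compounds at 10 µM, and remaining activity (%) was reported. A separate competitive binding screen measured DNA-tagged kinase displaced from immobilized active-site ligands by qPCR, giving percent kinase still bound at 10 µM compound in DMSO.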"}, "TAO2(h)": {"molecular_target": "T1, TAO2(h) (Homo sapiens, UniProt Q9UL54)", "T1 construct": "gene TAOK2", "T1 sequence (Q9UL54 1-1235)": "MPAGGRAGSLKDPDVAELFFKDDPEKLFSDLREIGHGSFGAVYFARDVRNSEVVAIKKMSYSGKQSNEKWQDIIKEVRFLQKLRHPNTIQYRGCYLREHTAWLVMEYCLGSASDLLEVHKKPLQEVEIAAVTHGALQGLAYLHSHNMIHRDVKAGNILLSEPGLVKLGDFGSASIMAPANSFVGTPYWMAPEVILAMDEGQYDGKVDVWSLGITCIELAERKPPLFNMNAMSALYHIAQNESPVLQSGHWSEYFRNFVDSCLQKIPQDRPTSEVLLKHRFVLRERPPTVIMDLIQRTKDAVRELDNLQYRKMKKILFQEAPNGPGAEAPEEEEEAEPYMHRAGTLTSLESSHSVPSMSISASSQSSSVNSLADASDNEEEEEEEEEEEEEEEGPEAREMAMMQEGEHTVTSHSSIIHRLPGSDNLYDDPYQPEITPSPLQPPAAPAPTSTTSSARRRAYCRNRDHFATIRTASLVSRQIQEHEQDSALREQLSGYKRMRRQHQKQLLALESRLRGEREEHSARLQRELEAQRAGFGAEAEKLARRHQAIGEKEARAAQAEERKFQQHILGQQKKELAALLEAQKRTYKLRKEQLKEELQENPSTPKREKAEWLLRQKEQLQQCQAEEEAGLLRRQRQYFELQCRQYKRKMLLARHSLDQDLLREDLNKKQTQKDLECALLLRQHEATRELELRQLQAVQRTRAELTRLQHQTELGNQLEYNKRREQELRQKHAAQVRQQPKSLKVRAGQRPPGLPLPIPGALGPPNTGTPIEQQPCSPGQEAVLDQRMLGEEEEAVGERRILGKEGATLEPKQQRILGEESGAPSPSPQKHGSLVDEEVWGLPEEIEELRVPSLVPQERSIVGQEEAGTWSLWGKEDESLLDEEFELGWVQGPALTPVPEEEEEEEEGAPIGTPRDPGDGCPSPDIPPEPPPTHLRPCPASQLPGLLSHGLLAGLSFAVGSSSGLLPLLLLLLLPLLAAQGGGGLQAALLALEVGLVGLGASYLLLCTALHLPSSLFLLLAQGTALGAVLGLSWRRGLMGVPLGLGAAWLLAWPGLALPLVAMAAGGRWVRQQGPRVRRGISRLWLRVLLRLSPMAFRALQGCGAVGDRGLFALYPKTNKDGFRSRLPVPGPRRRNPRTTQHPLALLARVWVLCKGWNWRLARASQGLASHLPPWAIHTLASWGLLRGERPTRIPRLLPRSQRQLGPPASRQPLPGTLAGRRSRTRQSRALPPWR", "in_short": "as §1"}, "Tec(h) activated": {"molecular_target": "T2, Tec(h) activated (Homo sapiens, UniProt P42680)", "T2 sequence (P42680 1-631)": "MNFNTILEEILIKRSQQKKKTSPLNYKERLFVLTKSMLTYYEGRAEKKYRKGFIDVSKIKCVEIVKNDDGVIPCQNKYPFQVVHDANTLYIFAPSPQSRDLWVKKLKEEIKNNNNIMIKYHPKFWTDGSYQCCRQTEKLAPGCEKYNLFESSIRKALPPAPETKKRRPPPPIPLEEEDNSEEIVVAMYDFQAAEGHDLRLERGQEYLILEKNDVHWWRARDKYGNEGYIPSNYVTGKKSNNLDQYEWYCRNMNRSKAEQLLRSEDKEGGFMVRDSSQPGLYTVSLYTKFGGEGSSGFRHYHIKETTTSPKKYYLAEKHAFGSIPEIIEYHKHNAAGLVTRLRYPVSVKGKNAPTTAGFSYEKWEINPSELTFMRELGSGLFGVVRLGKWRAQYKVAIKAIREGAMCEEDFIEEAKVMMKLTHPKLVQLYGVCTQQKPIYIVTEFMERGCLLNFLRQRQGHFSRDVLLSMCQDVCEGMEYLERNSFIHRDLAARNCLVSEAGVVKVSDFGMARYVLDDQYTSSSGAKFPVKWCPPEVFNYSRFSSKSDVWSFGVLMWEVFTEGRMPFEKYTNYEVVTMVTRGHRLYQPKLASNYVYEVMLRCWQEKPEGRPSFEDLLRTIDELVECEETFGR", "in_short": "as §1"}, "[1]": {"settings": "read-out: Residual activity (%) 5ay"}, "[2]": {"settings": "read-out: Residual activity (%) Spautin-1 5aa"}, "[3]": {"settings": "read-out: Residual activity (%) 5at"}, "[4]": {"settings": "read-out: Residual activity (%) 5as"}}, "note": "Where two headings read alike, the source gives them in different places."}
{"smiles": "COc1ccc2ncnc(Nc3cccc(F)c3)c2c1", "note": "[5ay, N-(3-Fluorophenyl)-6-Methoxy-4-Quinazolinamine]", "values": [{"measurement": "remaining activity at 10 µM", "setting": "SRMS(h); [1]", "value": 78, "unit": "%"}, {"measurement": "remaining activity at 10 µM", "setting": "TAO2(h); [1]", "value": 112, "unit": "%"}, {"measurement": "remaining activity at 10 µM", "setting": "Tec(h) activated; [1]", "value": 76, "unit": "%"}]}
{"smiles": "Fc1ccc(CNc2ncnc3ccc(F)cc23)cc1", "note": "[5aa, 6-Fluoro-N-(4-fluorobenzyl)-4-Quinazolinamine]", "values": [{"measurement": "remaining activity at 10 µM", "setting": "SRMS(h); [2]", "value": 86, "unit": "%"}, {"measurement": "remaining activity at 10 µM", "setting": "TAO2(h); [2]", "value": 110, "unit": "%"}, {"measurement": "remaining activity at 10 µM", "setting": "Tec(h) activated; [2]", "value": 78, "unit": "%"}]}
{"smiles": "Fc1ccc2ncnc(NCCc3ccc(Cl)cc3)c2c1", "note": "[5at, N-[2-(4-Chlorophenyl)Ethyl]-6-Fluoro-4-Quinazolinamine]", "values": [{"measurement": "remaining activity at 10 µM", "setting": "SRMS(h); [3]", "value": 71, "unit": "%"}, {"measurement": "remaining activity at 10 µM", "setting": "TAO2(h); [3]", "value": 107, "unit": "%"}, {"measurement": "remaining activity at 10 µM", "setting": "Tec(h) activated; [3]", "value": 86, "unit": "%"}]}
{"smiles": "Fc1ccc(CCNc2ncnc3ccc(F)cc23)cc1", "note": "[5as, 6-Fluoro-N-[2-(4-Fluorophenyl)Ethyl]-4-Quinazolinamine]", "values": [{"measurement": "remaining activity at 10 µM", "setting": "SRMS(h); [4]", "value": 84, "unit": "%"}, {"measurement": "remaining activity at 10 µM", "setting": "TAO2(h); [4]", "value": 109, "unit": "%"}, {"measurement": "remaining activity at 10 µM", "setting": "Tec(h) activated; [4]", "value": 100, "unit": "%"}]}
